Data published in patent US7863465B2, “Antifungal agents” (Merck Sharp & Dohme Corp., priority 2006, dated 2011).
pIC50: −log10 of the molar value. Where a name gives a salt, the structure may show the parent alone.

Each compound was assayed against T1, glucan synthase (GS) prepared from Candida albicans MY1055 (Candida albicans, UniProt O13428) (assay: Glucan synthase inhibition (polymerization assay, 96-well, 3H-UDPG incorporation)). Conditions: glucan synthase from C. albicans MY1055.
T1 construct: Extraction of GS activity from membranes was performed at a protein concentration of 5 mg/mL in extraction buffer; endogenous in cells; host or cells: Candida albicans MY1055 (membranes, detergent extract, product entrapment)
T1 sequence (O13428 1-1897): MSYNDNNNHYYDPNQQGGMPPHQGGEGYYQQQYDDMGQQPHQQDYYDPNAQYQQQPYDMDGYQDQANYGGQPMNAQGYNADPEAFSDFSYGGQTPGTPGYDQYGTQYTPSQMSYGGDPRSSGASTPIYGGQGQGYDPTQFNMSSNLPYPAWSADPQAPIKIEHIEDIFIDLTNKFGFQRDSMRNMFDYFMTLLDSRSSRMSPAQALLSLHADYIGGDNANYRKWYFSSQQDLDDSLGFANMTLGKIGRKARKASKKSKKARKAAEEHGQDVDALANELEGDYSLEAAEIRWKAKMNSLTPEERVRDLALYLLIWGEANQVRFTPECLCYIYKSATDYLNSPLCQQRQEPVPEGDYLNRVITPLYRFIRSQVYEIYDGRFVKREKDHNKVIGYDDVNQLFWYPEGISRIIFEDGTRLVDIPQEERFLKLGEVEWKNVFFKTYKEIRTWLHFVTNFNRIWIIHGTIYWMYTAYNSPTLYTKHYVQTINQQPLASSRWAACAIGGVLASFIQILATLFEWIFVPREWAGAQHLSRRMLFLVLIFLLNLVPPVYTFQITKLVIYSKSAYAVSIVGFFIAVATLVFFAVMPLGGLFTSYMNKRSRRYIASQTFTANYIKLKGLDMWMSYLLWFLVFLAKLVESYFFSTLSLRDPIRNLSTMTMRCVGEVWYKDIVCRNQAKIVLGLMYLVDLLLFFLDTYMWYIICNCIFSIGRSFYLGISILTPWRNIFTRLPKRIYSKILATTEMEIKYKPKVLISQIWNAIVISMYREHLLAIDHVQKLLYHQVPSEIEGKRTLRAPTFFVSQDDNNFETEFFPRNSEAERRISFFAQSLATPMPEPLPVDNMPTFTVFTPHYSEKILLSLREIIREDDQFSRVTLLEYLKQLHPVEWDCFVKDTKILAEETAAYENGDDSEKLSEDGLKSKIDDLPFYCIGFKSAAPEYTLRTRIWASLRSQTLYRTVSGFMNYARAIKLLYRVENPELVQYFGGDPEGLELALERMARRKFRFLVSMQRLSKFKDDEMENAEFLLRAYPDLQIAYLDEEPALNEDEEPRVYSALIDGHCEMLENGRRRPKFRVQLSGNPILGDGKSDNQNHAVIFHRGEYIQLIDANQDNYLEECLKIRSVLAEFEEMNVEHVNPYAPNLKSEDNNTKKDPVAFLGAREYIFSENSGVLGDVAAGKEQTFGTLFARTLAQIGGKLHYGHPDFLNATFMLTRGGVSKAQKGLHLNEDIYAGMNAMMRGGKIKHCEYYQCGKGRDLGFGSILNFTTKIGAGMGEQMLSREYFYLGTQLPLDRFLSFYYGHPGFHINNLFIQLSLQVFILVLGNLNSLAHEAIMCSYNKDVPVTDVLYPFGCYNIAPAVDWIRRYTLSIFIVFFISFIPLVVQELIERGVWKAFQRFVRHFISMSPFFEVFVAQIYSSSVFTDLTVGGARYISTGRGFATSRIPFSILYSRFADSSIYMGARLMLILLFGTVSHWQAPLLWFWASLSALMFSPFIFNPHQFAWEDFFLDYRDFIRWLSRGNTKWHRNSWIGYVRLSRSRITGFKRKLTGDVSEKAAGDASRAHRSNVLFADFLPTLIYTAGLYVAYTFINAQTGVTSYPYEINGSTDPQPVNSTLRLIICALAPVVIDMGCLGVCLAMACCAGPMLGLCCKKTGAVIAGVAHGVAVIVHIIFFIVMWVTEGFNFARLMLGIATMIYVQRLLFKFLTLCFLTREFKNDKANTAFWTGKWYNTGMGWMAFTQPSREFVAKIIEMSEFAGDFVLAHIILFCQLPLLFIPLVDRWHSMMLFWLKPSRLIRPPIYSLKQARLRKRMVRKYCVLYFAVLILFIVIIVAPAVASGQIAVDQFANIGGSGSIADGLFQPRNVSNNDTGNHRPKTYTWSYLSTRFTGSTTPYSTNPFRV
T1 sequence (O42825 whole entry partner): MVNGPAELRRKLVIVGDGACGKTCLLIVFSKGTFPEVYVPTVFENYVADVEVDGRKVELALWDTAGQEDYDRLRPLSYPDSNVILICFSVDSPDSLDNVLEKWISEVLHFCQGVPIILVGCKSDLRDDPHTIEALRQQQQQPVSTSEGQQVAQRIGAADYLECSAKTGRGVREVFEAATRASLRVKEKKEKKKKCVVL
Assay type: biochemical
Protocol: The in vitro evaluation of glucan synthase inhibitory activity of compounds was measured in a polymerization assay in 96-well format. Each well contained 100 μL of ^3H-UDPG at 0.5 mM (6000 to 8000 dpm/nmol), 50 mM HEPES pH 7.5 (Sigma), 10% w/v glycerol (Sigma), 1.5 mg/mL bovine serum albumin (Sigma A 9647. Lot 44H0190), 25 mM KF (Fisher), 1 mM EDTA (Gibco Ultrapure), 25 μM GTP-γ-S, enzyme sufficient to give 3 to 6 nmoles incorporation during the 60 min incubation at 22° C., and test compound added from wells in 3-fold serial dilutions in 100% DMSO (1 μL/well). The reaction was stopped by the addition of 100 μL of 20% trichloroacetic acid. Plates were chilled for a minimum of 10 min, and precipitated glucan collected by filtration on GF/C plates (Packard Unifilter®-96), washed with 5 cycles of water (about 1 mL/well each cycle) using a Packard Filtermate Harvester. 40 μL/well scintillation fluid (Packard Ultima Gold TM-XR) was added and the sealed plates counted in a Wallac Beta counter in top-counting mode at an efficiency of approximately 40%.
Stock solutions were stored at 10 mg/mL in DMSO at −20° C. For each new enzyme preparation, the initial titration performed started at 1 mg/mL, which was prepared by making a 10-fold dilution in DMSO (5 μL to 50 μL). 40 μL of this stock was placed in column 12 of a round-bottomed 96-well microtiter plate. 40 μL DMSO was added to columns 1 to 11 in the same row and ten 3-fold serial dilutions performed, by transferring 20 μL from column 12 to column 11 etc., with 4 mixings before each transfer. No test compound was transferred to from column 2 to column 1. Duplicate aliquots of 1 μL of all 12 dilutions were then transferred to the side walls of a 96-well Bioblock 1.1 mL plate (Fisherbrand) to create two rows.
The results were tabulated and a standard plate background was subtracted and the net count transpose-pasted into a Prism file, with final compound concentrations used in ng/mL. Graphs were created in Prism software, using the average of two determinations, and using Prism's curve fitting program (sigmoidal dose response non-linear regression).
Routine analysis was performed with glucan synthase (GS) prepared from Candida albicans MY1055 by the following procedure: MY1055 was grown in 10 liters YPD medium (10 g yeast extract, 20 g tryptone, 20 g glucose per liter) with vigorous shaking at 30° C., to early stationary phase. Cells were harvested by centrifugation, the pellet was washed and frozen at −70° C. until breakage. Thawed pellets were shaken with an equal volume of breakage buffer (50 mM HEPES pH 7.4, 10% glycerol, 1 mM EDTA, 1 mM PMSF, 1 mM DTT) and 4 times their weight of 0.5 mm acid washed glass beads for 2 hours at 4° C. Extent of breakage was assessed visually at 40× magnification. For C. parapsilosis strains, shaking was extended to 3 hours to maximize breakage. After low speed centrifugation to remove cell debris, the supernatant was centrifuged at 100,000×g for 60 min. to separate membranes plus ribosomes from cytoplasmic components. Membranes were further washed two additional times with breakage buffer using the same centrifugation conditions and finally suspended in breakage buffer at 25 to 30 mg/mL protein (Biorad) for storage at −70° C. Extraction of GS activity from membranes was performed at a protein concentration of 5 mg/mL in extraction buffer (50 mM NaPO4 pH 7.5, 0.1 M KCl, 0.1M Na citrate, 20% glycerol, 5 μM GTP-γ-S, 1 mM DTT, 1 mM PMSF, 3 μg/mL pepstatin) plus 0.25% W1 by gentle mixing at 4° C. for 60 min, followed by centrifugation at 100,000×g for 60 min. After centrifugation, clear supernatant was removed from a pellet consisting of a hard layer usually with small amounts of gelatinous unextracted membranes above it. […]
Work on `CC(=O)O[C@@H]1C[C@@]23COC[C@](C)([C@@H]2CC[C@H]2C3=CC(=O)[C@@]3(C)[C@H](C(=O)O)[C@@](C)([C@H](C)C(C)C)CC[C@]23C)[C@H]1OC[C@](C)(N)C(C)C` [Example 151, (1S,2R,3R,4aR,6aS,7R,8R,10aR,10bR,12aR)-3-acetoxy-2-[[(2R)-2-amino-2,3-dimethylbutyl]oxy]-8-[(1R)-1,2-dimethylpropyl]-1,6a,8,10a-tetramethyl-6-oxo-1,3,4,6,6a,7,8,9,10,10a,10b,11,12,12a-tetradecahydro-2H-1,4a-(methanooxymethano)chrysene-7-carboxylic acid (fumaric acid salt)] yielded a pIC50 of 7.77. `CN[C@@](C)(CO[C@H]1[C@H](OC(C)=O)C[C@@]23COC[C@]1(C)[C@@H]2CC[C@H]1C3=CC(=O)[C@@]2(C)[C@H](C(=O)O)[C@@](C)([C@H](C)C(C)C)CC[C@]12C)C(C)C` [Example 152, (1S,2R,3R,4aR,6aS,7R,8R,10aR,10bR,12aR)-3-acetoxy-2-[[(2R)-2-methylamino-2,3-dimethylbutyl]oxy]-8-[(1R)-1,2-dimethylpropyl]-1,6a,8,10a-tetramethyl-6-oxo-1,3,4,6,6a,7,8,9,10,10a,10b,11,12,12a-tetradecahydro-2H-1,4a-(methanooxymethano)chrysene-7-carboxylic acid (fumaric acid salt)] showed a pIC50 of 7.86. `CC(=O)O[C@@H]1C[C@@]23COC[C@](C)([C@@H]2CC[C@H]2C3=CC(=O)[C@@]3(C)[C@H](C(=O)O)[C@@](C)([C@H](C)C(C)C)CC[C@]23C)[C@H]1OC[C@@](C)(C(C)C)N(C)C` [Example 153, (1S,2R,3R,4aR,6aS,7R,8R,10aR,10bR,12aR)-3-acetoxy-2-[[(2R)-2-dimethylamino-2,3-dimethylbutyl]oxy]-8-[(1R)-1,2-dimethylpropyl]-1,6a,8,10a-tetramethyl-6-oxo-1,3,4,6,6a,7,8,9,10,10a,10b,11,12,12a-tetradecahydro-2H-1,4a-(methanooxymethano)chrysene-7-carboxylic acid (fumaric acid salt)] showed a pIC50 of 7.57.
